According to the NIST ThermoML archive (doi:10.1016/j.jct.2009.08.002):
± gives the expanded uncertainty stated by the source.

How the values were obtained:
[1] = molar heat capacity at constant pressure; conditions: 298.15 K; 101.33 kPa; Liquid; Large sample (1 g) DSC
[2] = molar heat capacity at constant pressure; xn = mol fraction of the nth substance listed; conditions: Liquid, Large sample (1 g) DSC, x2 = 0

| Structure (SMILES) | molar heat capacity at constant pressure [1] | molar heat capacity at constant pressure ([2]; 283.15 K) | molar heat capacity at constant pressure ([2]; 288.15 K) | molar heat capacity at constant pressure ([2]; 293.15 K) | molar heat capacity at constant pressure ([2]; 298.15 K) | molar heat capacity at constant pressure ([2]; 303.15 K) | molar heat capacity at constant pressure ([2]; 308.15 K) | molar heat capacity at constant pressure ([2]; 313.15 K) | molar heat capacity at constant pressure ([2]; 318.15 K) | molar heat capacity at constant pressure ([2]; 323.15 K) |
| --- | --- | --- | --- | --- | --- | --- | --- | --- | --- | --- |
| CCCCCCn1cc[n+](C)c1.F[B-](F)(F)F [1-hexyl-3-methylimidazolium tetrafluoroborate] | 432 ± 8 J/K/mol |  |  |  |  |  |  |  |  |  |
| CCCCCCCC[n+]1ccn(C)c1.F[B-](F)(F)F [1-methyl-3-octylimidazolium tetrafluoroborate] | 498.3 ± 11 J/K/mol |  |  |  |  |  |  |  |  |  |
| CC#N [acetonitrile] | 90.93 ± 1.4 J/K/mol |  |  |  |  |  |  |  |  |  |
| CC#N [acetonitrile] + CCCCCCCC[n+]1ccn(C)c1.F[B-](F)(F)F |  | 90.03 ± 1.4 J/K/mol | 90.3 ± 1.4 J/K/mol | 90.6 ± 1.4 J/K/mol | 90.93 ± 1.4 J/K/mol | 91.28 ± 1.4 J/K/mol | 91.66 ± 1.4 J/K/mol | 92.07 ± 1.4 J/K/mol | 92.5 ± 1.4 J/K/mol | 92.96 ± 1.4 J/K/mol |
| CC#N [acetonitrile] + CCCCCCn1cc[n+](C)c1.F[B-](F)(F)F |  | 90.03 ± 1.4 J/K/mol | 90.3 ± 1.4 J/K/mol | 90.6 ± 1.4 J/K/mol | 90.93 ± 1.4 J/K/mol | 91.28 ± 1.4 J/K/mol | 91.66 ± 1.4 J/K/mol | 92.07 ± 1.4 J/K/mol | 92.5 ± 1.4 J/K/mol | 92.96 ± 1.4 J/K/mol |
